Measurements as given in patent US20060271062A1 (priority 2005, published 2006).
Like-named read-outs stand apart in the source and are kept apart here.

Tests used:
[1] = system: lens epithelial cell; conditions: in vitro; cited from earlier work
[2] = system: residual lens epithelial cells; conditions: rabbit, in vivo
[3] = system: residual lens epithelial cells; format: cell-based, human
[4] = system: lens epithelial cells; conditions: rabbit, in vivo
[5] = system: lens epithelial cells; format: cell-based, human
[6] = system: trabecular meshwork; conditions: cited from earlier work
[7] = system: residual lens epithelial cells; assay: Intracapsular latrunculin-B during extracapsular lens extraction in rabbits (Example 1); format: in vivo, rabbit; conditions: 2 μM
[8] = system: lens, lens capsule or corneal endothelium and other adjacent tissues; conditions: outflow facility-effective concentrations, infusion for 45-90 min; cited from earlier work
[9] = 1 ml intracapsular for 10 minutes then 5 min irrigation/aspiration, vehicle 0.25% DMSO, light microscopy of fixed capsular bag

Row | SMILES | Inhibiting lens epithelial cell proliferation [1] | Lens epithelial cells removed in comparison to control vehicle, determined by LM [2] | Lens epithelial cells removed in comparison to control vehicle, determined by LM [3] | PCO formation or severity in comparison to control vehicle [4] | PCO formation or severity in comparison to control vehicle [5] | further results
1 | O=c1[nH]cc(F)c(=O)[nH]1 [5-fluorouracil] | effective | – | – | – | – | –
2 | CC1CNCCN1S(=O)(=O)c1cccc2cnccc12 (stereo not drawn) [H-7, 1-(5-isoquinolinyl-sulfonyl)-2-methylpiperazine] | – | more lens epithelial cells be removed | more lens epithelial cells be removed | prevent the formation or reduce the severity of PCO | prevent the formation or reduce the severity of PCO | Outflow facility ([6]; monkey, in vivo): significantly increased
3 | COc1cc2c(c(OC)c1OC)-c1ccc(OC)c(=O)cc1[C@@H](NC(C)=O)CC2 [colchicine] | effective | – | – | – | – | –
4 | COc1cccc2c1C(=O)c1c(O)c3c(c(O)c1C2=O)C[C@@](O)(C(C)=O)C[C@@H]3O[C@H]1C[C@H](N)[C@H](O)[C@H](C)O1 [daunomycin] | effective | – | – | – | – | –
5 | C/C1=C/C(=O)O[C@@H]2C[C@@H](CC[C@H](C)/C=C\CC1)O[C@@](O)([C@@H]1CSC(=O)N1)C2 [latrunculin-B] | – | more lens epithelial cells be removed | more lens epithelial cells be removed | prevent the formation or reduce the severity of PCO | prevent the formation or reduce the severity of PCO | Clearance of residual lens epithelial cells during the extracapsular lens extraction [7]: facilitated the clearance; Area A (dirty area with dense residual materials): treated eye versus vehicle-treated eye [7, 9]: no difference; Area B (relatively clean area): residual lens epithelial cells versus vehicle-treated eye [7, 9]: fewer residual lens epithelial cells; Outflow facility ([6]; living monkeys, all concentrations named in b65 (latrunculin-B 0.5-2 μM, 0.01% topical; H-7 100-300 μM, 5% topical)): significantly increased; Observable damage to the lens, lens capsule or corneal endothelium and other adjacent tissues [8]: did not induce any observable damage
6 | CO[C@@]12[C@H](COC(N)=O)C3=C(C(=O)C(C)=C(N)C3=O)N1C[C@@H]1N[C@@H]12 [mitomycin C] | effective | – | – | – | – | –
